The target of this experiment is Nicotinamide phosphoribosyltransferase (Homo sapiens, UniProt P43490). In words: Biochemical Inhibition Assay: The NAMPT enzymatic reactions were carried out in Buffer A (50 mM Hepes pH 7.5, 50 mM NaCl, 5 mM MgCl2, and 1 mM THP) in 96-well V-bottom plates. The compound titrations were performed in a separate dilution plate by serially diluting the compounds in DMSO to make a 100x stock. Buffer A (89 uL) containing 33 nM of NAMPT protein was added to 1 uL of 100x compound ….
Sequence of Nicotinamide phosphoribosyltransferase (P43490 whole entry): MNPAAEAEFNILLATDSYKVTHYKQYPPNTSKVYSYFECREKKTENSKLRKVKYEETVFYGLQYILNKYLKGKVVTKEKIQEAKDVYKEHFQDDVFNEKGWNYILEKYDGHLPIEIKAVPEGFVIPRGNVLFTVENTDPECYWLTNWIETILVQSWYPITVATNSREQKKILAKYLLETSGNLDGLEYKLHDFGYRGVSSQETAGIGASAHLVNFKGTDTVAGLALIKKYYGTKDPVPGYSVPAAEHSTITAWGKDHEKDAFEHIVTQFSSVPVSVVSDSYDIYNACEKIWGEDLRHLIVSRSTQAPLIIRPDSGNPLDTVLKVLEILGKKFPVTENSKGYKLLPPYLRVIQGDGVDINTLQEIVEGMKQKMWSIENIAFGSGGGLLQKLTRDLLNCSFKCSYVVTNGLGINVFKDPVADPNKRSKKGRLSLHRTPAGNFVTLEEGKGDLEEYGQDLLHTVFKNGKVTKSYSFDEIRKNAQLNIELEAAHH

The values below come from ChEMBL document CHEMBL3886171, “Compounds and compositions for the inhibition of NAMPT” (2015).

Description: Biochemical Inhibition Assay: The NAMPT enzymatic reactions were carried out in Buffer A (50 mM Hepes pH 7.5, 50 mM NaCl, 5 mM MgCl2, and 1 mM THP) in 96-well V-bottom plates. The compound titrations were performed in a separate dilution plate by serially diluting the compounds in DMSO to make a 100x stock. […] The compound and enzyme mix was incubated for 15 minutes at room temperature, then 10 uL of 10x substrate and co-factors in Buffer A were added to the test well to make a final concentration of 1 uM NAM, 100 uM 5-Phospho-D-ribose 1-diphosphate (PRPP), and 2.5 mM Adenosine 5'-triphosphate (ATP). The reaction was allowed to proceed for 30 minutes at room temperature, then was quenched with the addition of 11 uL of a solution of formic acid and L-Cystathionine to make a final concentration of 1% formic acid and 10 uM L-Cystathionine.

Turning to `Cn1ncc2ccc(S(=O)(=O)c3ccc(NC(=O)/C=C/c4cccnc4)cc3)cc21`, it took 2.6 nM to reach half-maximal inhibition (IC50).
